# In paper PMC11342346 (ACS Bio & Med Chem Au, 2024):
# *1 amine or outer side, *2 acyl side, *3 side chain or, on linkers, in order; H or OH if unused. Where a SMILES comes first, the peptide text is derived from it. Bridges are numbered along the chain shown (N, C = ends). Roman numbers before positions name the chains, in order. Where no end group is shown, it is not given here. The star is where a group is joined. CO(CH2CH2O)5CH2CH2CO = O=C(CCOCCOCCOCCOCCOCCC(=O)[*:2])[*:1]; PEG12 = NCCOCCOCCOCCOCCOCCOCCOCCOCCOCCOCCOCCOCCC(=O)O; Biotin = O=C1N[C@H]2[C@H](CS[C@H]2CCCCC(=O)*)N1; PEG2 = NCCOCCOCCC(=O)O
# Key:
# [1] = system: Ring Finger Protein 43 (RNF43); type: binding; settings: SPR, DCP immobilized on streptavidin sensor, RNF43 as analyte
# [2] = system: Wnt signaling in HEK293 TOPbrite (TB) luciferase reporter cells; type: cell-based; settings: three independent runs
# [3] = target: biotin-PEG12-MK1-3.6.10S; assay: SPR
# [4] = target: biotin-PEG2-MK1-3.6.10S; assay: SPR
# Sequence of human ZNRF3 (free, in solution) (Q9ULT6 56-936): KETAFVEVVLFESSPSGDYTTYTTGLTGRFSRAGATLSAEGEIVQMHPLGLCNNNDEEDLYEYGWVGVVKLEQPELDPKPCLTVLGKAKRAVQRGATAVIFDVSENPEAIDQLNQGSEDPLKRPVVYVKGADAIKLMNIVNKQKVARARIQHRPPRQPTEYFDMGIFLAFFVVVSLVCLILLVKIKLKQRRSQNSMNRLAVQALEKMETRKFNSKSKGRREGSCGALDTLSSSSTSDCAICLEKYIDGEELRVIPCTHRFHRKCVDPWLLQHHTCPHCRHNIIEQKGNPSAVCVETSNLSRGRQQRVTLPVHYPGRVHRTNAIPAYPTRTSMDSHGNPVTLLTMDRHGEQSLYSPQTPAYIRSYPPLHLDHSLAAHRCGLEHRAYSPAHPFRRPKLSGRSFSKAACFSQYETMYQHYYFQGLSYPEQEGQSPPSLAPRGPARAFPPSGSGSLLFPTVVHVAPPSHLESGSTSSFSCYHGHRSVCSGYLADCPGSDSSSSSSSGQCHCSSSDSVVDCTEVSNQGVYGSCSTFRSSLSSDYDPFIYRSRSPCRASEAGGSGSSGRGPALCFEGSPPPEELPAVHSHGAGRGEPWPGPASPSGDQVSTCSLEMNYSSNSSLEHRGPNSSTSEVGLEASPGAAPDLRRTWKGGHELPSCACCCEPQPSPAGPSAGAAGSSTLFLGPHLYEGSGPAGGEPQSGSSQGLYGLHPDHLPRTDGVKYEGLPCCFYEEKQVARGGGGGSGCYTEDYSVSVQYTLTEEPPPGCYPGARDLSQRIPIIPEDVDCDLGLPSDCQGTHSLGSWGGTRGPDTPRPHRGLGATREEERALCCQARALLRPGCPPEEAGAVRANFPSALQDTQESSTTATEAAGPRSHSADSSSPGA
compound,measurement,setting,value
"CC[C@H](C)[C@@H]1NC(=O)[C@@H]2CCCN2C(=O)[C@H](CCCNC(=N)N)NC(=O)[C@H](CCC(=O)O)NC(=O)[C@@H]2CSSC[C@@H]3NC(=O)[C@H](CCCCN)NC(=O)[C@H](CCCCN)NC(=O)[C@H](CC(N)=O)NC(=O)[C@H](CC(C)C)NC(=O)[C@H](CCCNC(=N)N)NC(=O)[C@H](CC(N)=O)NC(=O)[C@@H](NC(=O)[C@H](CO)NC(=O)CCOCCOCCNC(=O)CCCC[C@@H]4SC[C@@H]5NC(=O)N[C@@H]54)CSSC[C@H](NC(=O)[C@H](CSSC[C@@H](C(=O)N[C@@H](CCCNC(=N)N)C(=O)N4CCC[C@H]4C(=O)N[C@@H](CC(=O)O)C(=O)N[C@H](C(=O)NCC(=O)N4CCC[C@H]4C(=O)O)C(C)C)NC(=O)[C@H](Cc4ccc(O)cc4)NC(=O)[C@H](CCSC)NC(=O)[C@H](Cc4ccccc4)NC(=O)[C@H](CCCCN)NC(=O)[C@H](Cc4c[nH]c5ccccc45)NC(=O)CNC1=O)NC(=O)[C@H](CC(=O)O)NC(=O)[C@H](C)NC(=O)[C@H](CC(=O)O)NC(=O)[C@H](CO)NC(=O)[C@H](CC(N)=O)NC3=O)C(=O)N[C@@H](C)C(=O)N[C@@H](CC(N)=O)C(=O)N[C@@H](CCCCN)C(=O)N[C@@H](CCC(=O)O)C(=O)N[C@@H](CCCCN)C(=O)N2 [biotin-PEG2-MK1-3.6.10S] ({Biotin-PEG2}-SCNRLNKKCNSDADCCANKEKCERPIGWKFMYCRPDVGP-OH; disulfide 2-16, 9-22, 15-33; C-terminus assumed)",binding to RNF43,[1],did not bind
"CC[C@H](C)[C@@H]1NC(=O)[C@@H]2CCCN2C(=O)[C@H](CCCNC(=N)N)NC(=O)[C@H](CCC(=O)O)NC(=O)[C@@H]2CSSC[C@@H]3NC(=O)[C@H](CCCCN)NC(=O)[C@H](CCCCN)NC(=O)[C@H](CC(N)=O)NC(=O)[C@H](CC(C)C)NC(=O)[C@H](CCCNC(=N)N)NC(=O)[C@H](CC(N)=O)NC(=O)[C@@H](NC(=O)[C@H](CO)NC(=O)CCOCCOCCOCCOCCOCCOCCOCCOCCOCCOCCOCCOCCNC(=O)CCCC[C@@H]4SC[C@@H]5NC(=O)N[C@@H]54)CSSC[C@H](NC(=O)[C@H](CSSC[C@@H](C(=O)N[C@@H](CCCNC(=N)N)C(=O)N4CCC[C@H]4C(=O)N[C@@H](CC(=O)O)C(=O)N[C@H](C(=O)NCC(=O)N4CCC[C@H]4C(=O)O)C(C)C)NC(=O)[C@H](Cc4ccc(O)cc4)NC(=O)[C@H](CCSC)NC(=O)[C@H](Cc4ccccc4)NC(=O)[C@H](CCCCN)NC(=O)[C@H](Cc4c[nH]c5ccccc45)NC(=O)CNC1=O)NC(=O)[C@H](CC(=O)O)NC(=O)[C@H](C)NC(=O)[C@H](CC(=O)O)NC(=O)[C@H](CO)NC(=O)[C@H](CC(N)=O)NC3=O)C(=O)N[C@@H](C)C(=O)N[C@@H](CC(N)=O)C(=O)N[C@@H](CCCCN)C(=O)N[C@@H](CCC(=O)O)C(=O)N[C@@H](CCCCN)C(=O)N2 [biotin-PEG12-MK1-3.6.10S] ({Biotin-PEG12}-SCNRLNKKCNSDADCCANKEKCERPIGWKFMYCRPDVGP-OH; disulfide 2-16, 9-22, 15-33; C-terminus assumed)",binding to RNF43,[1],did not bind
"I: SCNRLNKKCNSDADCCANKEKCERPIGWKFMYCRPDVGP / II: SCNRLNKKCNSDADCCANKEKCERPIGWKFMYCRPDVGP (disulfide I:2-I:16, I:9-I:22, I:15-I:33, II:2-II:16, II:9-II:22, II:15-II:33; linker I:N-II:N via CO(CH2CH2O)5CH2CH2CO) [di-MK1-3.6.10S]",activation of Wnt signaling in reporter assay (in words),[2],able to induce Wnt signaling activation to a similar extent to the synthetic MK1-3.6.10 dimer
"human ZNRF3 (free, in solution) (from UniProt Q9ULT6 56-936) (natural protein)",Kd,[3],118 nM
same,Kd,[4],149 nM
